This is an account of results in patent publication EP1787658B1, “Sustained release formulations of somatostatin analogue inhibitors of growth hormone” (CHEMI S.p.A., priority 2005, dated 2012).

A short description of this series: Plasma levels of somatostatin analogue after a single s.c. or i.m. administration, by LC/MS-MS. The note with it: after both s.c. and i.m injection. Type of series: in vivo, rats. On the procedure: Two groups of animals were treated with a single administration each s.c. and i.m, of 100µl of the formulation (3.37 mg of oligopeptide equal to 15mg/Kg). Blood samples from 5 animals per time point were collected at different time points up to 49 days after treatment. The plasma levels of somatostine analogue were determined by a LC/MS-MS method.
Mean plasma, levels and standard deviations for each time point are shown in the table below (Table 2) and in Figures 1 and 2.

On to `C[C@@H](O)[C@@H]1NC(=O)[C@H](CCCCN)NC(=O)[C@@H](Cc2c[nH]c3ccccc23)NC(=O)[C@H](Cc2ccccc2)NC(=O)[C@@H](NC(=O)[C@H](N)Cc2ccccc2)CSSC[C@@H](C(=O)N[C@H](CO)[C@@H](C)O)NC1=O` [Octreotide acetate], for which the “presence of detectable levels of the oligopeptide” value is recorded as “up to 49 days”.
